Data published in ChEMBL document CHEMBL1127015, “Centrally acting serotonergic and dopaminergic agents. 1. Synthesis and structure-activity relationships of 2,3,3a,4,5,9b-hexahydro-1H-benz[e]indole derivatives” (J Med Chem, 1993).

Key:
[1] = test system: Mus musculus; assay: Antagonism of apomorphine for 0-10 minutes in reserpinized mice when a dose of 36 micro mol/kg is administered intraperitoneally; format: functional
[2] = test system: Mus musculus; assay: Antagonism of apomorphine effects for 0-10 minutes in reserpinized mice following 0.4 umol/kg i.p.; format: functional; set-up: unit not given beside the values
[3] = molecular target: T1, D(2) dopamine receptor (Rattus norvegicus, UniProt P61169); assay: Binding affinity against [3H]raclopride-labeled dopamine receptor D2 in rat striatum.; format: tissue-based
[4] = test system: Mus musculus; assay: Antagonism of apomorphine in reserpinized mice when a dose of 36 micro mol/kg is administered intraperitoneally; format: functional
[5] = test system: Mus musculus; assay: Increase in locomotor activity in reserpinized mice following 0.4 umol/kg i.p.; format: functional
[6] = test system: Mus musculus; assay: Antagonism of apomorphine for 0-10 minutes in reserpinized mice when a dose of 3.6 micro mol/kg is administered intraperitoneally; format: functional
[7] = test system: Mus musculus; assay: Ability to stimulate dopaminergic systems by effect on locomotor activity in reserpinized mice when a dose of 3.6 micro mol/kg is administered intraperitoneally; format: functional
[8] = test system: Mus musculus; assay: Antagonism of apomorphine in reserpinized mice when a dose of 3.6 micro mol/kg is administered intraperitoneally; format: functional
[9] = test system: Rattus norvegicus; assay: Inhibition of firing rates of serotonergic neurons in the substantia nigra pars compacta by intravenous injection in rats.; format: functional
[10] = test system: Mus musculus; assay: Antagonism of apomorphine for 10-20 minutes in reserpinized mice when a dose of 36 micro mol/kg is administered intraperitoneally; format: functional
[11] = molecular target: T2, D(2) dopamine receptor (Homo sapiens, UniProt P14416); assay: Intrinsic activity from GTP shift using membranes from CHO cells transfected with mammalian dopamine receptor D2.; format: cell membranes
[12] = test system: Mus musculus; assay: Ability to stimulate dopaminergic systems by effect on locomotor activity in reserpinized mice when a dose of 36 micro mol/kg is administered intraperitoneally; format: functional
[13] = test system: Rattus norvegicus; assay: Inhibition of firing rates of dopaminergic neurons in the substantia nigra pars compacta by intravenous injection in rats; format: functional
[14] = test system: Mus musculus; assay: Antagonism of apomorphine for 10-20 minutes in reserpinized mice when a dose of 3.6 micro mol/kg is administered intraperitoneally; format: functional
[15] = test system: Mus musculus; assay: Antagonism of apomorphine effects in reserpinized mice following 0.4 umol/kg i.p.; format: functional
[16] = test system: Mus musculus; assay: Antagonism of apomorphine effects for 10-20 minutes in reserpinized mice following 0.4 umol/kg i.p.; format: functional
[17] = test system: Mus musculus; assay: Antagonism of apomorphine in reserpinized mice when a dose of 3.5 micro mol/kg is administered intraperitoneally; format: functional
[18] = test system: Mus musculus; assay: Antagonism of apomorphine for 0-10 minutes in reserpinized mice when a dose of 35 micro mol/kg is administered intraperitoneally; format: functional
[19] = test system: Mus musculus; assay: Antagonism of apomorphine for 10-20 minutes in reserpinized mice when a dose of 3.5 micro mol/kg is administered intraperitoneally; format: functional
[20] = test system: Mus musculus; assay: Antagonism of apomorphine for 0-10 minutes in reserpinized mice when a dose of 3.5 micro mol/kg is administered intraperitoneally; format: functional
[21] = test system: Mus musculus; assay: Antagonism of apomorphine in reserpinized mice when a dose of 35 micro mol/kg is administered intraperitoneally; format: functional
[22] = test system: Mus musculus; assay: Antagonism of apomorphine for 10-20 minutes in reserpinized mice when a dose of 35 micro mol/kg is administered intraperitoneally; format: functional
[23] = test system: Mus musculus; assay: Ability to stimulate dopaminergic systems by effect on locomotor activity in reserpinized mice when a dose of 3.5 micro mol/kg is administered intraperitoneally; format: functional
[24] = molecular target: T2, D(2) dopamine receptor; assay: Compound was evaluated for the intrinsic activity from GTP shift against dopamine receptor D2; format: functional
[25] = test system: Mus musculus; assay: Ability to stimulate dopaminergic systems by effect on locomotor activity in reserpinized mice when a dose of 35 micro mol/kg is administered intraperitoneally; format: functional
[26] = molecular target: T2, D(2) dopamine receptor; assay: Compound was evaluated for the binding affinity against [3H]U-86,170-labeled dopamine receptor D2 in cloned CHO cells; format: cell-based
[27] = test system: Felis catus; assay: Maximum decrease of sympathetic nerve activity (SND) in anesthetized cat has been expressed as percent control; format: functional; set-up: scale not given: the % may be the effect or the level left
[28] = test system: Mus musculus; assay: Maximum decrease in temperature when compound is administered through peroral route; format: functional
[29] = test system: Rattus norvegicus; assay: Inhibition of firing rates of serotonergic neurons in the dorsal raphe nucleus by intravenous injection in rats.; format: functional
[30] = test system: Mus musculus; assay: Time of effect in the isolation-induced aggression behavioral assay in the mouse when a dose of 10 micro mol/kg is administered intraperitoneally; format: functional
[31] = test system: Mus musculus; assay: Effective dose on hypothermia in mouse when administered through peroral route; format: functional; conditions: po
[32] = test system: Rattus norvegicus; assay: Inhibition of firing rates of dopaminergic neurons in the substantia nigra pars compacta by intravenous injection in rats.; format: functional; conditions: Rattus norvegicus, Substantia nigra pars compacta, iv; read-out: ED50
[33] = test system: Mus musculus; assay: Maximum decrease in temperature when compound is administered subcutaneously; format: functional
[34] = test system: Felis catus; assay: Maximum decrease of arterial blood pressure at sympathetic nerve activity (SND) in anesthetized cat has been observed following 1 mg/kg dose; format: functional; set-up: scale not given: the % may be the effect or the level left
[35] = test system: Mus musculus; assay: Time of effect in the isolation-induced aggression behavioral assay in the mouse when a dose of 3.4 micro mol/kg is administered intraperitoneally; format: functional
[36] = test system: Mus musculus; assay: Time of effect in the face-to-face behavioral assay in the mouse when a dose of 0.0 micro mol/kg is administered subcutaneously; format: functional
[37] = molecular target: T1, D(2) dopamine receptor; assay: Inhibitory concentration against [3H]raclopride-labeled dopamine receptor D2 in rat striatum; format: tissue-based
[38] = test system: Mus musculus; assay: Effective dose on hypothermia in mouse when administered subcutaneously; format: functional; conditions: sc
[39] = test system: Mus musculus; assay: Time of effect in the face-to-face behavioral assay in the mouse when a dose of 34 micro mol/kg is administered subcutaneously; format: functional
[40] = test system: Mus musculus; assay: Antagonism of apomorphine in reserpinized mice when a dose of 37 micro mol/kg is administered intraperitoneally; format: functional
[41] = test system: Mus musculus; assay: Ability to stimulate dopaminergic systems by effect on locomotor activity in reserpinized mice when a dose of 3.7 micro mol/kg is administered intraperitoneally; format: functional
[42] = test system: Mus musculus; assay: Ability to stimulate dopaminergic systems by effect on locomotor activity in reserpinized mice when a dose of 37 micro mol/kg is administered intraperitoneally; format: functional
[43] = test system: Mus musculus; assay: Antagonism of apomorphine for 0-10 minutes in reserpinized mice when a dose of 37 micro mol/kg is administered intraperitoneally; format: functional
[44] = test system: Mus musculus; assay: Antagonism of apomorphine in reserpinized mice when a dose of 3.7 micro mol/kg is administered intraperitoneally; format: functional
[45] = test system: Mus musculus; assay: Antagonism of apomorphine for 10-20 minutes in reserpinized mice when a dose of 37 micro mol/kg is administered intraperitoneally; format: functional
[46] = test system: Mus musculus; assay: Antagonism of apomorphine for 0-10 minutes in reserpinized mice when a dose of 3.7 micro mol/kg is administered intraperitoneally; format: functional
[47] = molecular target: T2, D(2) dopamine receptor; assay: Binding affinity against [3H]U-86,170-labeled dopamine receptor D2 in cloned CHO cells; format: cell-based
[48] = test system: Mus musculus; assay: Antagonism of apomorphine for 10-20 minutes in reserpinized mice when a dose of 3.7 micro mol/kg is administered intraperitoneally; format: functional
[49] = organism: Rattus norvegicus; assay: Effect on the synthesis rates of serotonin (5-HTP accumulation) in the rat ventral limbic brain region at 10.6uMkg.; format: functional, Limbic system
[50] = organism: Rattus norvegicus; assay: Effect on the synthesis rates of serotonin (5-HTP accumulation) in the rat ventral limbic brain region at 10.6uMkg; format: functional, Limbic system

T1 sequence (P61169 whole entry): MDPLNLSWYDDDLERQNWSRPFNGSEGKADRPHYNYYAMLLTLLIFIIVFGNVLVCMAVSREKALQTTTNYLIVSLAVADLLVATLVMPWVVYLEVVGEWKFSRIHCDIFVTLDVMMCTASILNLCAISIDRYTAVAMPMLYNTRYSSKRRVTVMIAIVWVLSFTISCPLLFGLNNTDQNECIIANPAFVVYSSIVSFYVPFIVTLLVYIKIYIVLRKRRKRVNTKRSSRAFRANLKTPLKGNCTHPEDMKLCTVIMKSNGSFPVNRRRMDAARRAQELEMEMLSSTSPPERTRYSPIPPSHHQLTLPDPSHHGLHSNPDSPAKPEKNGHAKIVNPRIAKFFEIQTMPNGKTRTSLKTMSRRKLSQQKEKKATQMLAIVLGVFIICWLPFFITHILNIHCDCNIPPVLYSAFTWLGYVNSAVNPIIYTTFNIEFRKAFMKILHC
T2 sequence (P14416 whole entry): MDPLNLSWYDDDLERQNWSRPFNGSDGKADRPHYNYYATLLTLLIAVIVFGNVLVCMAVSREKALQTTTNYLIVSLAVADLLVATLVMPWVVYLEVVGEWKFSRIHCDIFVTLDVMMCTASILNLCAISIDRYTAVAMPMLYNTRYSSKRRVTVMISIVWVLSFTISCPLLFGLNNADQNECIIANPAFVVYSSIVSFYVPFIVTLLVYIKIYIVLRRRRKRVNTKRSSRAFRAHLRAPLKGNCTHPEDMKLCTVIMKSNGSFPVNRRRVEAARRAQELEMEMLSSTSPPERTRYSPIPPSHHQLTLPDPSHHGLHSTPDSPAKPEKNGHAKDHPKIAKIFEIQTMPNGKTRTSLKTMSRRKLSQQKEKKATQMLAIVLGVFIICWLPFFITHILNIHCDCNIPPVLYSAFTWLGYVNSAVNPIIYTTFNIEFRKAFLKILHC

C=CCN1CC[C@H]2c3cccc(OC)c3CC[C@H]21
Locomotor activity [1]: 52 | Locomotor activity [2]: 164 | Ki [3]: 25 nM | Locomotor activity [4]: 21 | Locomotor activity [5]: 17 | Locomotor activity [6]: 130 | Locomotor activity [7]: 5 | Locomotor activity [8]: 62 | ED50 [9]: 0.24 µmol/kg | Locomotor activity [10]: 38 | Intrinsic activity [11]: 0% | Locomotor activity [12]: 3 | ED50 [13]: 0.91 µmol/kg | Locomotor activity [14]: 105 | Locomotor activity [15]: 78 | Locomotor activity [16]: 120

CCCN1CC[C@H]2c3c(cccc3OC)CC[C@H]21
Locomotor activity [2]: 60 | Locomotor activity [17]: 6 | Locomotor activity [18]: 49 | Locomotor activity [19]: 67 | Ki [3]: 67 nM | Locomotor activity [20]: 72 | Locomotor activity [21]: 9 | Locomotor activity [5]: 19 | Locomotor activity [22]: 51 | Locomotor activity [23]: 36 | Intinsic activity [24]: 37% | Locomotor activity [15]: 41 | Locomotor activity [16]: 93 | Locomotor activity [25]: 69

COc1cccc2c1C1CCN(CCc3ccccc3)[C@H]1CC2 (some centres not stated)
Ki [26]: 392 nM

CCCN1[C@H](C)CC2c3c(cccc3OC)CC[C@H]21 (mixture of isomers)
Control [27]: 250% | Max temperature decrease [28]: 2.4 | ED50 [29]: 0.1 µmol/kg | Time [30]: 8 s | ED50 [31]: 104 µmol/kg | ED50 [32]: 1.7 µmol/kg | Max temperature decrease [33]: 5.2 | Control [34]: 65% | Time [35]: 17 s | Time [36]: 0.6 s | IC50 [37]: > 1000 nM | ED50 [38]: 19 µmol/kg | Time [39]: 1.5 s

CCCN1CC[C@@H]2c3cccc(O)c3CC[C@H]21 (racemic)
Locomotor activity [2]: 54 | Ki [3]: 33 nM | Locomotor activity [40]: 4 | Locomotor activity [5]: 63 | ED50 [32]: 0.43 µmol/kg | Locomotor activity [41]: 2 | Locomotor activity [42]: 162 | Locomotor activity [43]: 6 | Locomotor activity [44]: 46 | Locomotor activity [45]: 5 | Locomotor activity [46]: 34 | Intrinsic activity [11]: 28% | Ki [47]: 93 nM | Locomotor activity [15]: 72 | Locomotor activity [48]: 47 | Locomotor activity [16]: 86

CCCN1CC[C@H]2c3cccc(OC)c3CC[C@H]21 (racemic)
Control [49]: 34% | Control [50]: 7%
